Reference: PMC6167002 (Journal of Medicinal Chemistry, 2018)

Key:
T. brucei = test system: T1, T. brucei; test: microbe, parasite or virus in culture; design: species or system T. b. brucei s427 bloodstream form; bloodstream T. b. brucei viability, resazurin fluorescence; settings: Trypanosoma brucei, 73 h
T1 construct: s427
Protocol: T.brucei cell viability assays were carried out as described previously.[6] In brief, bloodstream T. b. brucei s427 was cultured at 37 °C in modified HMI9 medium (56 μM 1-thioglycerol was substituted for 200 μM 2-mercaptoethanol) and quantified using a hemocytometer. Cell culture plates were stamped with 1 μL of an appropriate concentration of test compound in DMSO followed by the addition of 200 μL of trypanosome culture (10^4 cells ml^–1) to each well except for one column that received media only. Culture plates of T. brucei cells were incubated at 37 °C in an atmosphere of 5% CO2 for 69 h before the addition of 20 μL of resazurin (final concentration, 50 μM). After a further 4 h incubation, fluorescence was measured (excitation 528 nm; emission 590 nm) using a BioTek flx800 plate reader.

[1] = target: T2, TbNMT (Trypanosoma brucei N-myristoyltransferase) (Trypanosoma brucei, UniProt Q388H8); test: scintillation proximity assay with [3H]myristoyl-CoA and biotinylated CAP5.[…] peptide; format: biochemical
T2 construct: gene Tb10.61.2550
T2 sequence (Q388H8 entry or part of it): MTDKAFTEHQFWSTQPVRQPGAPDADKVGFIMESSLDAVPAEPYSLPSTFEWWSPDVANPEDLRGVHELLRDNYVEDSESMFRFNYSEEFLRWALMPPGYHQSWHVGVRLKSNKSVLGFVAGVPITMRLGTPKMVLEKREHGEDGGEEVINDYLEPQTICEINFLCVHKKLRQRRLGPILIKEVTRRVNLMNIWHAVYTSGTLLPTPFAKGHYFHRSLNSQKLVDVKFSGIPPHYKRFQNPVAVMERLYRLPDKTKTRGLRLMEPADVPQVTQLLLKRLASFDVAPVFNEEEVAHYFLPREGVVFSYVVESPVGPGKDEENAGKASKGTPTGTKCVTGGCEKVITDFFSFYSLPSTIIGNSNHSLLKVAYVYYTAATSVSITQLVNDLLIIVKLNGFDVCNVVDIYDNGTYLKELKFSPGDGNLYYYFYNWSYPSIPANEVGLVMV

CC(C)Cc1ccc2ncccc2c1NS(=O)(=O)c1ccc(CCCC2CCNCC2)cc1 [S1, N-(6-isobutylquinolin-5-yl)-4-(3-(piperidin-4-yl)propyl)benzenesulfonamide]
EC50 (T. brucei): 25 nM

CC(C)Cc1ccc2ncccc2c1NS(=O)(=O)c1ccc(CCCN2CCN3CCC[C@@H]3C2)cc1 [compound 34, (R)-4-(3-(hexahydropyrrolo[1,2-a]pyrazin-2(1H)-yl)propyl)-N-(6-isobutylquinolin-5-yl)benzenesulfonamide]
EC50 (T. brucei): 40 nM

CC(C)Cc1ccc2ncccc2c1NS(=O)(=O)c1ccc(CCCOC[C@@H]2CCCCN2)cc1 [S3, (S)-N-(6-isobutylquinolin-5-yl)-4-(3-(piperidin-2-ylmethoxy)propyl)benzenesulfonamide]
EC50 (T. brucei): 850 nM

CC(C)Cc1ccc2ncccc2c1NS(=O)(=O)c1ccc(CCCOC[C@@H]2CCCN(C)C2)cc1 [S4, (R)-N-(6-isobutylquinolin-5-yl)-4-(3-((1-methylpiperidin-3-yl)methoxy)propyl)benzenesulfonamide]
EC50 (T. brucei): 10 nM

CC(C)Cc1ccc2ncccc2c1NS(=O)(=O)c1ccc(CCCO[C@H]2C[C@H]3CC[C@@H](C2)N3C)cc1 [compound 42, 42]
EC50 (T. brucei): 9 nM

CC(C)Cc1ccc2ncccc2c1NS(=O)(=O)c1ccc(CCCOC[C@H]2COCCN2)cc1 [S5, (S)-N-(6-isobutylquinolin-5-yl)-4-(3-(morpholin-3-ylmethoxy)propyl)benzenesulfonamide]
EC50 (T. brucei): 710 nM

CC(C)Cc1ccc2nn(C)cc2c1NS(=O)(=O)c1ccc(CCCO[C@@H]2C[C@H]3CC[C@@H](C2)N3C)cc1 [compound 60]
IC50 [1]: 5 nM

CC(C)Cc1ccc2ncccc2c1NS(=O)(=O)c1ccc(CCCO[C@@H]2C[C@H]3CC[C@@H](C2)N3C)cc1 [compound 41, 41]
EC50 (T. brucei): 91 nM

CC(C)Cc1ccc2ncccc2c1NS(=O)(=O)c1ccc(CCCCN2CCNCC2)cc1 [compound 39, N-(6-isobutylquinolin-5-yl)-4-(4-(piperazin-1-yl)butyl)benzenesulfonamide]
EC50 (T. brucei): 180 nM

CC(C)Cc1ccc2ncccc2c1NS(=O)(=O)c1ccc(CCCOC[C@@H]2CNCCO2)cc1 [compound 44, (S)-N-(6-isobutylquinolin-5-yl)-4-(3-(morpholin-2-ylmethoxy)propyl)benzenesulfonamide]
EC50 (T. brucei): 39 nM

CC(C)Cc1ccc2ncccc2c1NS(=O)(=O)c1ccc(CCCCN2CCCN(C)CC2)cc1 [compound 37, N-(6-isobutylquinolin-5-yl)-4-(4-(4-methyl-1,4-diazepan-1-yl)butyl)benzenesulfonamide]
EC50 (T. brucei): 59 nM

CC(C)Cc1ccc2ncccc2c1NS(=O)(=O)c1ccc(CCCN2CCN(C)CC2)cc1 [compound 38, N-(6-isobutylquinolin-5-yl)-4-(3-(4-methylpiperazin-1-yl)propyl)benzenesulfonamide]
EC50 (T. brucei): 84 nM

CC(C)Cc1ccc2ncccc2c1NS(=O)(=O)c1ccc(CCCOC[C@H]2COCCN2C)cc1 [S6, (S)-N-(6-isobutylquinolin-5-yl)-4-(3-((4-methylmorpholin-3-yl)methoxy)propyl)benzenesulfonamide]
EC50 (T. brucei): 250 nM

CC(C)Cc1ccc2ncccc2c1NS(=O)(=O)c1ccc(CCCCC2CCN(C)CC2)cc1 [compound 32, N-(6-Isobutylquinolin-5-yl)-4-(4-(1-methylpiperidin-4-yl)butyl)benzenesulfonamide]
IC50 [1]: < 5 nM | EC50 (T. brucei): 19 nM

CC(C)Cc1ccc2ncccc2c1NS(=O)(=O)c1ccc(CCCN2CCCN(C)CC2)cc1 [compound 36, N-(6-isobutylquinolin-5-yl)-4-(3-(4-methyl-1,4-diazepan-1-yl)propyl)benzenesulfonamide]
EC50 (T. brucei): 18 nM

CC(C)Cc1ccc2ncccc2c1NS(=O)(=O)c1ccc(CCCCN2CCN3CCC[C@@H]3C2)cc1 [compound 35, (R)-4-(4-(hexahydropyrrolo[1,2-a]pyrazin-2(1H)-yl)butyl)-N-(6-isobutylquinolin-5-yl)benzenesulfonamide]
EC50 (T. brucei): 250 nM

CC(C)Cc1ccc2ncccc2c1NS(=O)(=O)c1ccc(CCCC2CCN(C)CC2)cc1 [compound 31, N-(6-isobutylquinolin-5-yl)-4-(3-(1-methylpiperidin-4-yl)propyl)benzenesulfonamide]
EC50 (T. brucei): 9 nM

CC(C)Cc1ccc2ncccc2c1NS(=O)(=O)c1ccc(CCCCC2CCNCC2)cc1 [compound 33, N-(6-isobutylquinolin-5-yl)-4-(4-(piperidin-4-yl)butyl)benzenesulfonamide]
EC50 (T. brucei): 21 nM

CC(C)Cc1ccc2nn(C)cc2c1NS(=O)(=O)c1ccc(CCCCC2CCN(C)CC2)cc1 [compound 54, N-(5-Isobutyl-2-methyl-2H-indazol-4-yl)-4-(4-(1-methylpiperidin-4-yl)butyl)benzenesulfonamide]
IC50 [1]: < 5 nM

CC(C)Cc1ccc2ncccc2c1NS(=O)(=O)c1ccc(CCCN2CCN3CCC[C@H]3C2)cc1 [S2, (S)-4-(3-(hexahydropyrrolo[1,2-a]pyrazin-2(1H)-yl)propyl)-N-(6-isobutylquinolin-5-yl)benzenesulfonamide]
EC50 (T. brucei): 150 nM

CC(C)Cc1ccc2ncccc2c1NS(=O)(=O)c1ccc(CCCCN2C[C@@H](C)N[C@@H](C)C2)cc1 [compound 40, 4-(4-((3S,5R)-3,5-dimethylpiperazin-1-yl)butyl)-N-(6-isobutylquinolin-5-yl)benzenesulfonamide]
EC50 (T. brucei): 350 nM

CC(C)Cc1ccc2ncccc2c1NS(=O)(=O)c1ccc(CCCO[C@@H]2CCCN(C)C2)cc1 [compound 43, (R)-N-(6-isobutylquinolin-5-yl)-4-(3-((1-methylpiperidin-3-yl)oxy)propyl)benzenesulfonamide]
EC50 (T. brucei): 39 nM
